From PubChem BioAssay AID248 (DTP/NCI, 2004)
Several values for one entry are separate records, joined by “and”; a condition that tells them apart may be missing. Equal entries are not always repeated. Inconclusive results and toxic doses are left out. No stated cut-off is given here; in the data, active means T/C of 150% or more; inactive means T/C below 125%.

System: L1210 leukemia ip in BDF1 mice, survival T/C
Test: NCI In Vivo Anticancer Drug Screen. Data for tumor model L1210 Leukemia (intraperitoneal) in B6D2F1 (BDF1) mice
Conditions: endpoint: mean survival time, higher = longer survival
Summary of the method: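 Transplanted-tumor mice were given test agent; controls received vehicle only. Survival readings from the two groups were divided (treated over control).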

[1] = dose: 100.0 mg/kg/injection, schedule: Q01DX001 (ip), vehicle: carboxymethylcellulose (CMC)
[2] = dose: 200.0 mg/kg/injection, schedule: Q01DX001 (ip), vehicle: carboxymethylcellulose (CMC)
[3] = dose: 400.0 mg/kg/injection, schedule: Q01DX001 (ip), vehicle: carboxymethylcellulose (CMC)
[4] = dose: 100.0 mg/kg/injection, schedule: Q01DX001 (ip), vehicle: saline
[5] = dose: 200.0 mg/kg/injection, schedule: Q01DX001 (ip), vehicle: saline
[6] = dose: 400.0 mg/kg/injection, schedule: Q01DX001 (ip), vehicle: saline
[7] = dose: 100.0 mg/kg/injection, schedule: Q04DX002 (ip), vehicle: saline
[8] = dose: 200.0 mg/kg/injection, schedule: Q04DX002 (ip), vehicle: saline
[9] = dose: 100.0 mg/kg/injection, schedule: Q04DX003 (ip), vehicle: Klucel (hydroxypropylcellulose) (HPC)
[10] = dose: 100.0 mg/kg/injection, schedule: Q04DX003 (ip), vehicle: saline
[11] = dose: 200.0 mg/kg/injection, schedule: Q04DX003 (ip), vehicle: saline
[12] = dose: 100.0 mg/kg/injection, schedule: Q01DX009 (ip), vehicle: Klucel (hydroxypropylcellulose) (HPC)
[13] = dose: 200.0 mg/kg/injection, schedule: Q01DX009 (ip), vehicle: Klucel (hydroxypropylcellulose) (HPC)
[14] = dose: 200.0 mg/kg/injection, schedule: Q04DX003 (ip), vehicle: Klucel (hydroxypropylcellulose) (HPC)
[15] = dose: 400.0 mg/kg/injection, schedule: Q01DX009 (ip), vehicle: Klucel (hydroxypropylcellulose) (HPC)
[16] = dose: 400.0 mg/kg/injection, schedule: Q04DX003 (ip), vehicle: Klucel (hydroxypropylcellulose) (HPC)
[17] = dose: 100.0 mg/kg/injection, schedule: Q01DX001 (ip), vehicle: Klucel (hydroxypropylcellulose) (HPC)
[18] = dose: 200.0 mg/kg/injection, schedule: Q01DX001 (ip), vehicle: Klucel (hydroxypropylcellulose) (HPC)
[19] = dose: 400.0 mg/kg/injection, schedule: Q01DX001 (ip), vehicle: Klucel (hydroxypropylcellulose) (HPC)
[20] = dose: 400.0 mg/kg/injection, schedule: Q04DX003 (ip), vehicle: saline

Measured: T/C

CSc1ccc(N=Cc2ccccc2O)cc1
inactive: [1] 93 % of control | [2] 93 % of control | [3] 98 % of control

C[N+]1(C)C2CCC1CC(=NO)C2
inactive: dose: 75.0 mg/kg/injection, schedule: Q01DX001 (ip), vehicle: saline 104 % of control

S=c1[nH]c2ccccc2n1CCc1ccncc1
inactive: [4] 100 % of control | [5] 97 % of control | [6] 95 % of control

CC1(C)CC(NC(=O)NCCCl)CC(C)(C)N1
inactive: dose: 12.5 mg/kg/injection, schedule: Q01DX009 (ip), vehicle: saline 98 % of control | dose: 12.5 mg/kg/injection, schedule: Q04DX003 (ip), vehicle: saline 101 % of control | dose: 25.0 mg/kg/injection, schedule: Q01DX009 (ip), vehicle: saline 95 % of control | dose: 25.0 mg/kg/injection, schedule: Q04DX003 (ip), vehicle: saline 114 % of control | dose: 50.0 mg/kg/injection, schedule: Q04DX003 (ip), vehicle: saline 104 % of control

CC(C)(C)NC(=O)NCCCN1CCOCC1
inactive: [7] 96 % of control | [8] 90 % of control | dose: 400.0 mg/kg/injection, schedule: Q04DX002 (ip), vehicle: saline 96 % of control

COc1cc([N+](=O)[O-])cc(C=O)c1O
inactive: dose: 25.0 mg/kg/injection, schedule: Q04DX003 (ip), vehicle: Klucel (hydroxypropylcellulose) (HPC) 92 % of control | dose: 50.0 mg/kg/injection, schedule: Q04DX003 (ip), vehicle: Klucel (hydroxypropylcellulose) (HPC) 92 % of control | [9] 96 % of control and 101 % of control

CCOC(=O)Nc1cc(NCC(O)CN(C)c2ccc(Cl)cc2)c([N+](=O)[O-])c(N)n1 (stereo unspecified)
inactive: dose: 100.0 mg/kg/injection, schedule: Q01DX001 (ip), vehicle: saline with Tween-80 92 % of control | dose: 200.0 mg/kg/injection, schedule: Q01DX001 (ip), vehicle: saline with Tween-80 86 % of control | dose: 400.0 mg/kg/injection, schedule: Q01DX001 (ip), vehicle: saline with Tween-80 89 % of control

CC[N+](C)(CC)CCOC(=O)C1C2CC3OC(=O)C1C3C2 (stereo unspecified)
inactive: [10] 108 % of control | [11] 112 % of control

CCOC(=O)c1cc(/C=C/c2ccccc2)[nH]c(=O)c1C#N
inactive: [12] 98 % of control | [9] 95 % of control | [13] 97 % of control | [14] 93 % of control | [15] 98 % of control | [16] 90 % of control

CCOC(=O)C(CC(C)C)NC(=O)CCCCSc1ncnc2nc[nH]c12 (stereo unspecified)
inactive: dose: 25.0 mg/kg/injection, schedule: Q01DX009 (ip), vehicle: saline with Tween-80 110 % of control | dose: 25.0 mg/kg/injection, schedule: Q01DX009 (oral), vehicle: saline with Tween-80 100 % of control | dose: 50.0 mg/kg/injection, schedule: Q01DX009 (ip), vehicle: saline with Tween-80 112 % of control | dose: 50.0 mg/kg/injection, schedule: Q01DX009 (oral), vehicle: saline with Tween-80 92 % of control | dose: 100.0 mg/kg/injection, schedule: Q01DX009 (ip), vehicle: saline with Tween-80 100 % of control | dose: 100.0 mg/kg/injection, schedule: Q01DX009 (oral), vehicle: saline with Tween-80 100 % of control | dose: 200.0 mg/kg/injection, schedule: Q01DX009 (ip), vehicle: saline with Tween-80 98 % of control | dose: 200.0 mg/kg/injection, schedule: Q01DX009 (oral), vehicle: saline with Tween-80 98 % of control | dose: 400.0 mg/kg/injection, schedule: Q01DX009 (ip), vehicle: saline with Tween-80 115 % of control | dose: 400.0 mg/kg/injection, schedule: Q01DX009 (oral), vehicle: saline with Tween-80 107 % of control | dose: 800.0 mg/kg/injection, schedule: Q01DX009 (oral), vehicle: saline with Tween-80 111 % of control

Cc1ccc(CSCc2ccc(C)cc2)cc1
inactive: [12] 100 % of control | [13] 96 % of control | [15] 92 % of control

O=P(NC12CC3CC(CC(C3)C1)C2)(NC12CC3CC(CC(C3)C1)C2)N(CCCl)CCCl
inactive: dose: 50.0 mg/kg/injection, schedule: Q01DX009 (ip), vehicle: Klucel (hydroxypropylcellulose) (HPC) 112 % of control | [17] 105 % of control | [12] 104 % of control | [18] 94 % of control | [13] 89 % of control | [19] 98 % of control

CC(C)C(=O)OCP(=O)(COC(=O)C(C)C)COC(=O)C(C)C
inactive: dose: 100.0 mg/kg/injection, schedule: Q04DX003 (ip), vehicle: saline with Tween-80 92 % of control | dose: 200.0 mg/kg/injection, schedule: Q04DX003 (ip), vehicle: saline with Tween-80 97 % of control | dose: 400.0 mg/kg/injection, schedule: Q04DX003 (ip), vehicle: saline with Tween-80 93 % of control

CCOC(=O)CC(=O)CC(C)C
inactive: [9] 101 % of control | [14] 97 % of control | [16] 88 % of control

CCOC(=O)c1nn(C)c(=S)[nH]c1=O
inactive: dose: 100.0 mg/kg/injection, schedule: Q01DX Z (ip), vehicle: methylcellulose (MC) 92 % of control | dose: 200.0 mg/kg/injection, schedule: Q01DX Z (ip), vehicle: methylcellulose (MC) 90 % of control

CC/C=C(CC)/C(CC)=C(/C#N)CC
inactive: [10] 108 % of control | [11] 93 % of control | [20] 98 % of control

O=CC(NC(=O)C(O)C(O)C(O)C(O)CO)C(O)C(O)C(O)CO (stereo unspecified)
inactive: [10] 102 % of control | [11] 97 % of control | [20] 91 % of control

COC(=O)c1ccccc1NC(=O)Nc1cc(Cl)ccc1OC
inactive: [12] 89 % of control | [9] 106 % of control | [13] 103 % of control | [14] 90 % of control | [15] 107 % of control | [16] 95 % of control

CC(C)NC(=O)/C=C/C(=O)O
inactive: dose: 100.0 mg/kg/injection, schedule: Q01DX009 (ip), vehicle: saline 92 % of control | dose: 200.0 mg/kg/injection, schedule: Q01DX009 (ip), vehicle: saline 95 % of control | dose: 400.0 mg/kg/injection, schedule: Q01DX009 (ip), vehicle: saline 92 % of control

O=C1CCCC(c2ccccc2)O1 (stereo unspecified)
inactive: dose: 100.0 mg/kg/injection, schedule: Q04DX002 (ip), vehicle: Klucel (hydroxypropylcellulose) (HPC) 108 % of control | dose: 200.0 mg/kg/injection, schedule: Q04DX002 (ip), vehicle: Klucel (hydroxypropylcellulose) (HPC) 101 % of control | dose: 400.0 mg/kg/injection, schedule: Q04DX002 (ip), vehicle: Klucel (hydroxypropylcellulose) (HPC) 101 % of control

NC(=O)c1cc([N+](=O)[O-])c(Cl)c([N+](=O)[O-])c1
inactive: dose: 20.0 mg/kg/injection, schedule: Q04DX003 (ip), vehicle: Klucel (hydroxypropylcellulose) (HPC) 97 % of control | dose: 40.0 mg/kg/injection, schedule: Q04DX003 (ip), vehicle: Klucel (hydroxypropylcellulose) (HPC) 97 % of control | dose: 80.0 mg/kg/injection, schedule: Q04DX003 (ip), vehicle: Klucel (hydroxypropylcellulose) (HPC) 103 % of control

O=C(NC1CCCC1)c1ccc(C(=O)NC2CCCC2)cc1
inactive: [4] 91 % of control | [5] 91 % of control

Fc1c(F)c(Oc2c(F)c(F)c(C(F)(F)F)c(F)c2F)c(F)c(Oc2c(F)c(F)c(C(F)(F)F)c(F)c2F)c1F
inactive: [17] 96 % of control | [9] 98 % of control | [18] 100 % of control | [14] 95 % of control | [19] 89 % of control | [16] 97 % of control

CCCC(NC(=O)CN)C(=O)O (stereo unspecified)
inactive: dose: 50.0 mg/kg/injection, schedule: Q04DX002 (ip), vehicle: saline 96 % of control | [7] 101 % of control | [8] 96 % of control

CCCOB(OCCC)OCCC
inactive: dose: 50.0 mg/kg/injection, schedule: Q01DX001 (ip), vehicle: saline 95 % of control | [4] 98 % of control | [5] 98 % of control | [6] 106 % of control

O=[N+]([O-])c1ccccc1Nc1ccccc1
inactive: [1] 91 % of control | [2] 89 % of control | [3] 91 % of control
